Experimental data as given in US8808721B2, “Bed bug attractants and methods for trapping bed bugs” (SpringStar Inc., priority 2011, dated 2014).

Columns and labels:
bed bugs [1] = assay: ST traps, kairomone components (Example 9); type: in vivo, Cimex lectularius; conditions: combined with CO2 and heat, Location 4
Protocol: The kairomone composition of A1 was split into it components by chemical class, to determine if all components were necessary. Three new kairomone blends were tested (Table 3, Example 4). Blend A2 contained only skatole and androstenone (male boar compounds), and the adjuvants. Blend A3 contained all the ingredients from A1, but in slightly different ratios. Blend A4 contained only the fatty acid components and adjuvants. Four treatments were tested as follows: T0=CF1S+HW;T1=CF1+HW+A3;T2=CF1+HW+A2;T3=CF1+HW+A4
For treatment T0, the CO2 blend was made without skatole (CF1S, Table 1, Example 1). All treatments were tested using ST traps assembled as in Example 4.
A new location was used for testing kairomone components. Location 4 was an inhabited, 2-bedroom duplex in the suburbs of Seattle. Vacuum sampling estimated bed bug populations in each room at between 2,000 and 10,000 insects, which is considered heavily infested. Two people slept in the bedrooms on cots raised 50 cm off the carpet, which were then isolated from bed bugs in harborages by placing under each bed leg a plastic 16 oz drinking cup filled with propylene glycol or white pepper powder. […]

bed bugs [2] = assay: ST traps, adding skatole to carbon dioxide bait (Example 10); set-up: species or system Cimex lectularius; conditions: in vivo
From the text: Four ST traps from Example 3, baited with CF1, were paired with four ST traps baited with CF1S. Traps were placed in each of four corners of the location in Example 3. Traps were retrieved after one night. […] Additionally, all CF1 traps caught at least 2 bed bugs whereas half of the CF1S traps caught no bed bugs.

Row | SMILES | attractiveness of kairomone blend or component to bed bugs (bed bugs [1]) | effect of adding to the fermentative mixture on trap attractiveness (bed bugs [2])
1 | C[C@]12CCC(=O)C[C@@H]1CC[C@@H]1[C@@H]2CC[C@]2(C)C=CC[C@@H]12 [androstenone] | acted synergistically with the fatty acid compounds to attract bed bugs | –
2 | Cc1c[nH]c2ccccc12 [skatole, 3-methyl indole] | – | increased trap attractiveness to bed bugs
